According to patent US20200038414A1, “METHODS OF TREATING CONSTIPATION USING AMINOSTEROL COMPOSITIONS” (Enterin, Inc., priority 2018, published 2020):
Where “and” joins values, the source holds several entries; their conditions need not be identical. Identical values can stand only once.

Tests used:
αS = αS (Homo sapiens, UniProt P37840); conditions: in vitro; cited from earlier work
[1] = system: PD patients with constipation; experiment: Phase 2 trial Stage 1: prokinetic response to single escalating oral doses; format: in vivo, human; conditions: Stage 1, single oral dose
Source text: (§1) Tolerability limits included diarrhea or vomiting.

[2] = system: PD patients with constipation; experiment: Phase 2 trial, both Stages: adverse events in all dosed patients (n = 44); format: in vivo, human
Procedure: Adverse events were coded using the current version of MedDRA. Severity of AEs were assessed by investigators according to CTCAE (v4.03): Grade 1 is labeled as Mild, Grade 2 as Moderate, and Grade 3 and above as Severe. […] The number (percentage) of subjects who experienced an AE during escalation and fixed dosing periods were summarized by dose level and overall for each stage. The denominator for calculating the percentages were based on the number of subjects ever exposed to each dose and overall.

[3] = system: PD patients with constipation; experiment: Phase 2 trial Stage 2: CNS symptoms (UPDRS, MMSE, PDHQ, BDI-II); format: in vivo, human; conditions: for PDHQ (Mean): baseline 1.3 (2.99); for BDI-II (Mean): baseline 10.9 (7.12)
Procedure: (9) Unified Parkinson's Disease Rating Scale (UPDRS), which consists of 42 items in four subscales (Part I=Non-Motor Aspects of Experiences of Daily Living (nM-EDL) (1.1 cognitive impairment, 1.2 hallucinations and psychosis, 1.3 depressed mood; Part II=Motor Aspects of Experiences of Daily Living (M-EDL), Part III=Motor Examination, and Part IV=Motor Complications;
Assessments were made at baseline and at the end of the fixed dose and washout periods. Circadian system status was evaluated by continuously monitoring wrist skin temperature (Thermochron iButton DS1921H; Maxim, Dallas) following published procedures (Sarabia et al. 2008).
An exploratory analysis was done with respect to the sleep data, the body temperature data, mood, fatigue, hallucinations, cognition and other motor and non-motor symptoms of PD. Continuous measurements within a subject were compared with a paired t-test and continuous measurements between subject groups were compared with a two-group t-test. Categorical data were compared with a chi-squared test or a Fisher's exact test if the expected cell counts are too small for a chi-squared test.
CNS symptoms were evaluated at baseline and at the end of the fixed dose period and the wash-out period (Table 11). Total UPDRS score was 64.4 at baseline, 60.6 at the end of the fixed dose period and 55.7 at the end of the wash-out period (p=0.002); similarly, the motor component of the UPDRS improved from 35.3 at baseline to 33.3 at the end of fixed dose to 30.2 at the end of wash-out (p=0.006). MMSE improved from 28.4 at baseline to 28.7 during treatment and to 29.3 during wash-out (p=0.0006). […] PDHQ improved from 1.3 at baseline to […] during treatment and 0.9 during wash-out (p=0.03). Hallucinations were reported by 5 patients at baseline and delusions in 1 patient. […] Unlike stool-related indices, the improvement in many CNS symptoms persisted during wash-out.

[4] = system: PD patients with constipation; experiment: Phase 2 trial Stage 2: adverse events; format: in vivo, human
Procedure: (§2) In Stage 2, 34 patients were evaluated.

C. elegans model of PD = conditions: cited from earlier work
[5] = system: PD patients with constipation; experiment: Phase 2 trial Stage 1: adverse events; format: in vivo, human; conditions: Stage 1, dosed 10
Source text: as §1

[6] = system: PD patients with constipation; experiment: Phase 2 trial Stage 2: bowel function under daily oral dosing (escalation, fixed dose, randomization, wash-out); format: in vivo, human; conditions: for CSBM/week: randomized cohort
Procedure: as §2
The primary efficacy outcome variable was whether or not a subject was a “success” or “failure”. This is an endpoint based on subject diary entries for the “fixed dose” period prior to the endpoint assessment defined as average complete stool frequency increase by 1 or more over baseline, or 3 or more complete spontaneous stools/week. The subject was deemed a “success” if s/he met one or more of the criteria listed above, otherwise the subject was deemed a “failure”. The primary analysis was based on all subjects with a baseline assessment and an assessment at the end of the “fixed-dose” period and was a comparison of the proportion of successes with 0.10 (the null hypothesis corresponding to no treatment effect).

mouse models of PD = conditions: several mouse models of PD; cited from earlier work
[7] = following systemic administration, in mice; into the duodenum through the biliary tract; cited from earlier work
[8] = system: PD population with constipation; conditions: short term placebo controlled trial in PD; loose stools/diarrhea in place of constipation; cited from earlier work
[9] = Stage 2, dosed 34, unrelated to ENT-01

## CC(C)[C@@H](CC[C@@H](C)[C@H]1CC[C@H]2[C@@H]3[C@H](O)C[C@H]4C[C@@H](NCCCNCCCCN)CC[C@]4(C)[C@H]3CC[C@]12C)OS(=O)(=O)O (single isomer, unassigned) [squalamine (ENT-01)]
αS
  effect on formation of aggregates of αS: inhibit the formation of aggregates of αS
[1]; 25 mg
  cumulative prokinetic response rate (patients with a CSBM within 24 hours of dosing): 25%
[1]; 200 mg (maximum)
  cumulative prokinetic response rate (patients with a CSBM within 24 hours of dosing): 80%
[2]; 1/44
  patients with worsening of hemorrhoids: 2.2%
[2]; 2/44
  patients with worsening of acid reflux: 4.5%
[2]; 3/44
  patients with flatulence: 6.8%
  patients with vomiting: 6.8%
[2]; 8/44
  patients with dizziness: 18%
[2]; 11/44
  patients with abdominal pain: 32%
[3]; Stage 2, fixed dose, n = 34, P 0.45
  PDHQ (Mean): 1.8
[3]; Stage 2, fixed dose, n = 34, P 0.14
  BDI-II (Mean): 9.9
[3]; Stage 2, wash-out, n = 34, P 0.03
  PDHQ (Mean): 0.9
[3]; Stage 2, wash-out, n = 34, P 0.10
  BDI-II (Mean): 8.7
[3]; Stage 2, wash-out, n = 34, baseline 11.6 (6.51), P 0.06
  UPDRS Part 1 (NMS) (Mean): 9.5
[3]; during treatment, hallucinations in 5 patients and delusions in 1 patient at baseline
  patients in whom hallucinations and delusions improved or disappeared: 5 of 6
[4]; Stage 2, 15/34
  patients with diarrhea: 44%
[4]; Stage 2, 34 dosed
  patients who withdrew during dosing because of diarrhea: 2
[4]; Stage 2, dosed 34
  adverse event: Abdominal pain, Mild: 4 n
  adverse event: Abdominal pain, Moderate: 2 n
  adverse event: Diarrhea, Mild: 12 n
  adverse event: Diarrhea, Moderate: 2 n
  adverse event: Diarrhea, Severe: 1 n
  adverse event: Difficulty falling asleep, Mild: 1 n
  adverse event: Difficulty falling asleep, Moderate: 0 n
  adverse event: Dizziness, Mild: 7 n
  adverse event: Dizziness, Moderate: 1 n
  adverse event: Eye infection, Mild: 1 n
  adverse event: Eye infection, Moderate: 0 n
  adverse event: Flatulence, Mild: 1 n
  adverse event: Flatulence, Moderate: 0 n
  adverse event: Headache, Mild: 3 n
  adverse event: Headache, Moderate: 0 n
  adverse event: Increased urinary frequency, Mild: 2 n
  adverse event: Increased urinary frequency, Moderate: 0 n
  adverse event: Nausea, Mild: 18 n
  adverse event: Nausea, Moderate: 1 n
  adverse event: Skin lesions-rash, Mild: 3 n
  adverse event: Skin lesions-rash, Moderate: 0 n
  adverse event: Urinary retention, Mild: 1 n
  adverse event: Urinary retention, Moderate: 0 n
  adverse event: Urinary tract infection, Mild: 1 n
  adverse event: Urinary tract infection, Moderate: 2 n
  adverse event: Vomiting, Mild: 2 n
  adverse event: Vomiting, Moderate: 0 n
  adverse event: Worsening acid reflux, Mild: 4 n
  adverse event: Worsening acid reflux, Moderate: 0 n
  adverse event: Worsening hemorrhoid, Mild: 1 n
  adverse event: Worsening hemorrhoid, Moderate: 0 n
[4]; Stage 2, dosed 34, colonic diverticulosis, polyp, patient on aspirin, Plavix and naproxen, unrelated to ENT-01
  adverse event: Lower GI bleed, Severe: 1 n
[4]; [9]
  adverse event: Blood in urine, Mild: 0 n
  adverse event: Blood in urine, Moderate: 0 n
  adverse event: Loss of appetite, Mild: 0 n
  adverse event: Loss of appetite, Moderate: 0 n
[4]; Stage 2, two of 34 dosed
  patients terminated prior to completion because of recurrent dizziness: 5.8%
C. elegans model of PD; C. elegans model of PD in vivo
  effect on formation of aggregates of αS: inhibit the formation of aggregates of αS
[5]
  adverse event: Abdominal pain, Mild: 2 (20) n, %
  adverse event: Abdominal pain, Moderate: 3 (30) n, %
  adverse event: Diarrhea, Mild: 1 (10) n, %
  adverse event: Diarrhea, Moderate: 3 (30) n, %
  adverse event: Diarrhea, Severe: 0 n, %
  adverse event: Difficulty falling asleep, Mild: 0 n, %
  adverse event: Difficulty falling asleep, Moderate: 0 n, %
  adverse event: Dizziness, Mild: 0 n, %
  adverse event: Dizziness, Moderate: 0 n, %
  adverse event: Eye infection, Mild: 0 n, %
  adverse event: Eye infection, Moderate: 0 n, %
  adverse event: Flatulence, Mild: 2 (20) n, %
  adverse event: Flatulence, Moderate: 0 n, %
  adverse event: Headache, Mild: 1 (10) n, %
  adverse event: Headache, Moderate: 0 n, %
  adverse event: Increased urinary frequency, Mild: 0 n, %
  adverse event: Increased urinary frequency, Moderate: 0 n, %
  adverse event: Nausea, Mild: 4 (40) n, %
  adverse event: Nausea, Moderate: 0 n, %
  adverse event: Skin lesions-rash, Mild: 0 n, %
  adverse event: Skin lesions-rash, Moderate: 0 n, %
  adverse event: Urinary retention, Mild: 0 n, %
  adverse event: Urinary retention, Moderate: 0 n, %
  adverse event: Urinary tract infection, Mild: 0 n, %
  adverse event: Urinary tract infection, Moderate: 0 n, %
  adverse event: Vomiting, Mild: 1 (10) n, %
  adverse event: Vomiting, Moderate: 0 n, %
  adverse event: Worsening acid reflux, Mild: 0 n, %
  adverse event: Worsening acid reflux, Moderate: 0 n, %
  adverse event: Worsening hemorrhoid, Mild: 0 n, %
  adverse event: Worsening hemorrhoid, Moderate: 0 n, %
[5]; unrelated to ENT-01
  adverse event: Blood in urine, Mild: 1 (10) n, %
  adverse event: Blood in urine, Moderate: 0 n, %
  adverse event: Loss of appetite, Mild: 1 (10) n, %
  adverse event: Loss of appetite, Moderate: 0 n, %
  adverse event: Lower GI bleed, Severe: 0 n, %
[6]; Stage 2, fixed dose, n = 34, baseline 1.2 (0.90), P 2.3 × 10^−8
  CSBM, weekly average (mean, SD): 3.8 /week and 3.8 (2.40) /week
[6]; Stage 2, fixed dose, n = 34, baseline 1.8 (1.92), P 1.33 × 10^−5
  Suppository use / rescue medication, weekly average (mean, SD): 0.3 /week and 0.3 (0.67) /week
[6]; Stage 2, fixed dose, n = 34, baseline 2.6 (1.45), P 6.4 × 10^−6
  SBM, weekly average (mean, SD): 4.5 /week and 4.5 (2.21) /week
[6]; Stage 2, wash-out, Bristol stool scale, baseline 2.7 (1.20), P vs. baseline 0.85
  Consistency (Mean, SD): 2.8 (1.39)
[6]; Stage 2, wash-out, baseline 1.2 (0.90), P wash-out vs. baseline 0.01
  CSBM (Mean, SD): 1.8 (1.19) /week
[6]; Stage 2, wash-out, baseline 1.3 (0.45), P vs. baseline 0.11
  PAQ-SYM (Mean, SD): 1.1 (0.60)
[6]; Stage 2, wash-out, baseline 1.4 (0.49), P vs. baseline 0.04
  PAQ-QOL (Mean, SD): 1.2 (0.63)
[6]; Stage 2, wash-out, baseline 1.8 (1.92), P vs. baseline 0.13
  Rescue meds (Mean, SD): 1.0 (1.40) /week
[6]; Stage 2, wash-out, baseline 2.6 (1.45), P vs. baseline 0.16
  SBM (Mean, SD): 3.2 (1.80) /week
[6]; Stage 2, wash-out, ease of evacuation scale, baseline 3.2 (0.73), P vs. baseline 0.78
  Ease (Mean, SD): 3.3 (0.81)
[6]; fixed dose vs baseline (2.6 to 4.5)
  improvement of SBM/week: 73%
[6]; patients with baseline ≥1 CSBM/week, relation to baseline severity p=0.00055
  mean dose required for a prokinetic response: 120 mg
[6]; Treatment arm (n = 6), fixed dose period, baseline 0.8
  CSBM/week: 3.2 CSBM/week
[6]; Treatment arm (n = 6), randomized period (4-6 days), baseline 0.8
  CSBM/week: 2.4 CSBM/week
[6]; Treatment arm (n = 6), washout, baseline 0.8
  CSBM/week: 0.9 CSBM/week
[6]; patients later given placebo (n = 9), fixed dose period on drug, baseline 1.6
  CSBM/week: 3.3 CSBM/week

## CC(C)[C@@H](CC[C@@H](C)[C@H]1CC[C@H]2[C@@H]3[C@H](O)C[C@H]4C[C@@H](NCCCNCCCCN)CC[C@]4(C)[C@H]3CC[C@]12C)OS(=O)(=O)O [squalamine]
Mouse models of PD
  effect on gastrointestinal dysmotility: reverse gastrointestinal dysmotility
[7]
  clearance and excretion: cleared by the liver and excreted as the intact molecule
C. elegans model of PD; C. elegans model
  effect on muscle paralysis: complete reversal of muscle paralysis

## CCCCC(F)(F)[C@@]1(O)CC[C@H]2[C@@H](CC(=O)[C@@H]2CCCCCCC(=O)O)O1 [Lubiprostone]
[8]
  share of treated patients in whom effective: about 50%
